In patent US9492368B2, “External preparation for skin” (HAYASHIBARA CO., LTD., priority 2011, dated 2016):

Experiment: Solubility in deuterium water
Assay type: physicochemical
Method: For reference, the above nigerosyl adenosine was observed as a minor peak with a retention time of about 22 to 23 min between the elution peak of adenosine and that of 3′-glucosyladenosine other than the elution peaks of 5′- and 3′-glucosyladenosines and adenosine. When the fraction corresponding to such a minor peak was collected and subjected to mass spectrum (MS) analysis in usual manner, it was calculated to have a molecular weight of […] and judged to be a compound composed of two molecules of glucose bound to adenosine. Using the collected fraction and based on the chemical shift (see Table 13) of the carbons and protons of the fraction on MNR analysis under the following conditions, the substance contained in the fraction was identified as 5′-nigerosyladenosine (α-D-glucopyranosyl-(1→3)-α-D-glucopyranosyl-(1→5′)-adenosine; 5′-α-nigerosyladenosine). Since 5′-nigerosyladenosine dissolves in deuterium water in an amount of at least 6 w/v %, it has a higher solubility in aqueous media than 3′-glucosyladenosine. The carbon chemical shifts of adenosine and nigerose were obtained from the spectrum data base of organic compounds opened by The National Institute of Advanced Industrial Science and Technology (AIST) (SDBS; http://riodb01.ibase.aist.go.jp/sdbs/cgi-bin/direct_frame_top.cgi).

## Nc1ncnc2c1ncn2[C@@H]1O[C@H](CO[C@H]2O[C@H](CO)[C@@H](O)[C@H](O[C@H]3O[C@H](CO)[C@@H](O)[C@H](O)[C@H]3O)[C@H]2O)[C@@H](O)[C@H]1O [5′-nigerosyladenosine, α-D-glucopyranosyl-(1→3)-α-D-glucopyranosyl-(1→5′)-adenosine]
  Amount that dissolves in deuterium water: at least 6 w/v %
